{
  "source": "patent US6846805B2",
  "about": "“Helical peptidomimetics” (The Brigham and Women's Hospital, Inc., priority 2002, dated 2005)",
  "note": "pIC50: −log10 of the molar value. Square brackets hold non-standard residues; d marks the D form. Peptide text beside a SMILES is read from it. * marks the point of attachment. dBpa = N[C@H](Cc1ccc(C(=O)c2ccccc2)cc1)C(=O)O; Boc = CC(C)(C)OC(=O)*; Aib = CC(C)(N)C(=O)O; Bn = c1ccc(C*)cc1",
  "data": [
    {"tested_on": "γ-secretase (production of total Aβ)", "test": "Inhibition of total Aβ production in APP-transfected cells (sandwich ELISA)", "format": "cell-based", "details": "cell-based assay, CHO cells stably transfected with human APP; read-out: IC50 (concentration of compound that reduced production of total Aβ by 50%)", "source_text": "(§1) Based on the helical model for the APP transmembrane domain, we have identified short peptides designed to adopt a similar conformation that block γ-secretase activity. Judicious replacement of selected residues of short APP-derived peptides with 2-aminoisobutyric acid (Aib), a known helix-inducing amino acid (19, 20), provided peptides that, in principle, mimic the γ-secretase cleavage site on one face of the helix, with Aib residues on the other face. We have identified Aib-containing peptides (see below) that inhibit Aβ production in APP-transfected cells with IC50's as low as 2 μM. […] We also discovered that an Aib decapeptide that is not based on the APP sequence (VIIb in ref 19: […] The crystal structure of this compound has been determined, and the peptide is fully helical (19). […] These peptides likewise assume a helical conformation, although of the opposite sense (left-handed instead of right-handed). Thus, the invention advantageously provides helical peptidomimetics having improved metabolic stability. […] IC50 is the concentration of compound that reduced production of total Aβ by 50% in a cell-based assay using CHO cells stably transfected with human APP. […] The 15 D-peptides, varied in first position, are tested for their ability to inhibit total Aβ production in APP-transfected cell lines using a sensitive, quantitative, and convenient sandwich ELISA as we have previously described (12, 13). The compound best able to reduce Aβ production is then used as a starting point for the synthesis of a second round of peptide synthesis, 15 compounds each defined at the second position and containing the optimal first residue. In this iterative fashion, the optimal residue for each position is determined.", "values": [
      {"compound": "CC[C@H](C)[C@H](NC(=O)C(C)(C)NC(=O)[C@@H](NC(=O)[C@H](C)NC(=O)OC(C)(C)C)[C@@H](C)OCc1ccccc1)C(=O)N[C@H](C(=O)NC(C)(C)C(=O)OC)C(C)C", "note": "[Compound 1, Boc-Ala-Thr(OBz)-Aib-Ile-Val-Aib-OMe] (Boc-AT(Bn)[Aib]IV[Aib]-OMe)", "pIC50": 4.60},
      {"compound": "CC[C@H](C)[C@H](NC(=O)OC(C)(C)C)C(=O)N[C@@H](C)C(=O)N[C@H](C(=O)NC(C)(C)C(=O)N[C@H](C(=O)N[C@H](C(=O)NC(C)(C)C(=O)OC)C(C)C)[C@@H](C)CC)[C@@H](C)OCc1ccccc1", "note": "[Compound 2, Boc-Ile-Ala-Thr(OBz)-Aib-Ile-Val-Aib-OMe] (Boc-IAT(Bn)[Aib]IV[Aib]-OMe)", "pIC50": 4.82},
      {"compound": "CC[C@H](C)[C@H](NC(=O)C(C)(C)NC(=O)OC(C)(C)C)C(=O)N[C@@H](C)C(=O)N[C@H](C(=O)NC(C)(C)C(=O)N[C@H](C(=O)N[C@H](C(=O)NC(C)(C)C(=O)OC)C(C)C)[C@@H](C)CC)[C@@H](C)OCc1ccccc1", "note": "[Compound 3, Boc-Aib-Ile-Ala-Thr(OBz)-Aib-Ile-Val-Aib-OMe] (Boc-[Aib]IAT(Bn)[Aib]IV[Aib]-OMe)", "pIC50": 5.00},
      {"compound": "CC[C@H](C)[C@H](NC(=O)C(C)(C)NC(=O)[C@@H](NC(=O)OC(C)(C)C)C(C)C)C(=O)N[C@@H](C)C(=O)N[C@H](C(=O)NC(C)(C)C(=O)N[C@H](C(=O)N[C@H](C(=O)NC(C)(C)C(=O)OC)C(C)C)[C@@H](C)CC)[C@@H](C)OCc1ccccc1", "note": "[Compound 4, Boc-Val-Aib-Ile-Ala-Thr(OBz)-Aib-Ile-Val-Aib-OMe] (Boc-V[Aib]IAT(Bn)[Aib]IV[Aib]-OMe)", "pIC50": 5.70},
      {"compound": "CC[C@H](C)[C@H](NC(=O)C(C)(C)NC(=O)[C@@H](NC(=O)CNC(=O)OC(C)(C)C)C(C)C)C(=O)N[C@@H](C)C(=O)N[C@H](C(=O)NC(C)(C)C(=O)N[C@H](C(=O)N[C@H](C(=O)NC(C)(C)C(=O)OC)C(C)C)[C@@H](C)CC)[C@@H](C)OCc1ccccc1", "note": "[Compound 5, Boc-Gly-Val-Aib-Ile-Ala-Thr(OBz)-Aib-Ile-Val-Aib-OMe] (Boc-GV[Aib]IAT(Bn)[Aib]IV[Aib]-OMe)", "pIC50": 5.30},
      {"compound": "CC[C@H](C)[C@H](NC(=O)[C@@H](NC(=O)OC(C)(C)C)C(C)C)C(=O)NC(C)(C)C(=O)N[C@H](C(=O)N[C@H](C(=O)NC(C)(C)C(=O)OC)C(C)C)[C@@H](C)OCc1ccccc1", "note": "[Compound 6, Boc-Val-Ile-Aib-Thr(OBz)-Val-Aib-OMe] (Boc-VI[Aib]T(Bn)V[Aib]-OMe)", "pIC50": 4.92},
      {"compound": "CC[C@H](C)[C@H](NC(=O)[C@@H](NC(=O)[C@@H](NC(=O)OC(C)(C)C)C(C)C)C(C)C)C(=O)NC(C)(C)C(=O)N[C@H](C(=O)N[C@H](C(=O)NC(C)(C)C(=O)OC)C(C)C)[C@@H](C)OCc1ccccc1", "note": "[Compound 7, Boc-Val-Val-Ile-Aib-Thr(OBz)-Val-Aib-OMe] (Boc-VVI[Aib]T(Bn)V[Aib]-OMe)", "pIC50": 5.22},
      {"compound": "CC[C@H](C)[C@H](NC(=O)[C@@H](NC(=O)[C@@H](NC(=O)C(C)(C)NC(=O)OC(C)(C)C)C(C)C)C(C)C)C(=O)NC(C)(C)C(=O)N[C@H](C(=O)N[C@H](C(=O)NC(C)(C)C(=O)OC)C(C)C)[C@@H](C)OCc1ccccc1", "note": "[Compound 8, Boc-Aib-Val-Val-Ile-Aib-Thr(OBz)-Val-Aib-OMe] (Boc-[Aib]VVI[Aib]T(Bn)V[Aib]-OMe)", "pIC50": 5.22},
      {"compound": "CC[C@H](C)[C@H](NC(=O)[C@@H](NC(=O)[C@@H](NC(=O)C(C)(C)NC(=O)CNC(=O)OC(C)(C)C)C(C)C)C(C)C)C(=O)NC(C)(C)C(=O)N[C@H](C(=O)N[C@H](C(=O)NC(C)(C)C(=O)OC)C(C)C)[C@@H](C)OCc1ccccc1", "note": "[Compound 9, Boc-Gly-Aib-Val-Val-Ile-Aib-Thr(OBz)-Val-Aib-OMe] (Boc-G[Aib]VVI[Aib]T(Bn)V[Aib]-OMe)", "pIC50": 5.52},
      {"compound": "CC[C@H](C)[C@H](NC(=O)[C@@H](NC(=O)[C@@H](NC(=O)C(C)(C)NC(=O)CNC(=O)[C@@H](NC(=O)OC(C)(C)C)C(C)C)C(C)C)C(C)C)C(=O)NC(C)(C)C(=O)N[C@H](C(=O)N[C@H](C(=O)NC(C)(C)C(=O)OC)C(C)C)[C@@H](C)OCc1ccccc1", "note": "[Compound 10, Boc-Val-Gly-Aib-Val-Val-Ile-Aib-Thr(OBz)-Val-Aib-OMe] (Boc-VG[Aib]VVI[Aib]T(Bn)V[Aib]-OMe)", "pIC50": 5.52},
      {"compound": "COC(=O)C(C)(C)NC(=O)[C@H](CC(C)C)NC(=O)[C@H](C)NC(=O)C(C)(C)NC(=O)[C@H](CC(C)C)NC(=O)[C@H](C)NC(=O)C(C)(C)NC(=O)[C@H](CC(C)C)NC(=O)[C@H](C)NC(=O)C(C)(C)NC(=O)OC(C)(C)C", "note": "[VIIb, Boc-Aib-Ala-Leu-Aib-Ala-Leu-Aib-Ala-Leu-Aib-O-methylester, reference compound] (Boc-[Aib]AL[Aib]AL[Aib]AL[Aib]-OMe)", "pIC50": 5.70}
    ]},
    {"tested_on": "γ-secretase (production of total Aβ)", "test": "Inhibition of total Aβ production in APP-transfected cells (sandwich ELISA)", "format": "cell-based", "details": "same cell-based assay, CHO cells stably transfected with human APP; read-out: IC50 (reduction of total Aβ production)", "source_text": "as §1", "values": [
      {"compound": "COC(=O)C(C)(C)NC(=O)[C@H](NC(=O)[C@H](NC(=O)C(C)(C)NC(=O)[C@@H](Cc1ccc(C(=O)c2ccccc2)cc1)NC(=O)[C@H](NC(=O)[C@H](NC(=O)C(C)(C)NC(=O)CNC(=O)[C@H](NC(=O)OC(C)(C)C)C(C)C)C(C)C)C(C)C)[C@H](C)OCc1ccccc1)C(C)C", "note": "[SEQ ID NO:11, Boc-D-Val-Gly-Aib-D-Val-D-Val-D-BPA-Aib-D-Thr(OBz)-D-Val-Aib-OMe] (Boc-[dV]G[Aib][dV][dV][dBpa][Aib][dT](Bn)[dV][Aib]-OMe)", "pIC50": 7.00}
    ]}
  ]
}
